≈ marks a conversion by molar mass, not a printed value. Like-named read-outs stand apart in the source and are kept apart here.
Columns and labels:
[1] = test system: MCF-10A breast epithelial cells; experiment: Cell viability assay (MTT); type: cell-based, human; conditions: MCF10A
Source text: (§1) Rat cardiomyocyte H9c2 cells were kindly provided by Prof. Dr. Gunhild von Amsberg from the Martini-Klinik Prostate Cancer Center, University Hospital Hamburg-Eppendorf, Hamburg, Germany. The human HaCaT keratinocyte cell line was kindly provided by Prof. N. Fusenig (Cancer Research Centre, Heidelberg, Germany). Non-cancerous human breast epithelial MCF-10A cells were kindly provided by Dr. Irina Zhitnyak (N. N. Blokhin National Medical Research Center of Oncology, Moscow, Russia). Human breast cancer MCF-7 HTB-22 and MDA-MB-231 cells were obtained from the ATTC (Manassas, VA, USA).
(§2) H9c2 and HaCaT cells were cultured in DMEM with 10% fetal bovine serum and 1% penicillin/streptomycin (BioloT, St. Petersburg, Russia). MCF-7 and MDA-MB-231 cells were cultured in MEM (BioloT, St. Petersburg, Russia) with 10% fetal bovine serum (FBS) and 1% penicillin/streptomycin (BioloT, St. Petersburg, Russia). MCF 10A cells were cultured in DMEM F12 medium (BioloT, St. Petersburg, Russia) supplemented with 20% FBS, 20 ng/mL hrEGF (Sci-Store, Moscow, Russia), and 1% penicillin/streptomycin (BioloT, St. Petersburg, Russia). All cells were cultured at 37 °C in a humidified atmosphere containing 5% CO2.
(§3) H9c2 cells were seeded at a concentration of 3 × 10^3 cells/well. MCF-10A, MCF-7, and MDA-MB-231 cells were seeded at 5 × 10^3 cells/well, and HaCaT cells were seeded at 1 × 10^4 cells/well. The experiments were initiated after 24 h.
(§4) Compounds at concentrations up to 100 µM were added to the wells for 24h or 48 h, and the viability of the cells was measured using an MTT (3-(4,5-dimethylthiazol-2-yl)-2,5-diphenyltetrazolium bromide) assay, which was performed according to the manufacturer’s instructions (Sigma-Aldrich, Munich, Germany). […] DMSO was used as a control. The results are presented as percentages of the control data.

[2] = Cell viability assay (MTT); type: cell-based, human; conditions: human, read-out: Cytotoxicity IC50
Source text: as §1, §2, §3, §4

HaCaT keratinocytes = experiment: Cell viability assay (MTT); type: cell-based, human
Source text: as §1, §2, §3, §4

[3] = test system: MCF-7 breast cancer cells; experiment: Cell viability assay (MTT); type: cell-based, human
Source text: as §1, §2, §3, §4

[4] = test system: MDA-MB-231 breast cancer cells; experiment: Cell viability assay (MTT); type: cell-based, human
Source text: as §1, §2, §3, §4

H9c2 cardiomyocytes = experiment: Cell viability assay (MTT); type: cell-based, rat
Source text: as §1, §2, §3, §4

[5] = Cell viability assay (MTT); type: cell-based, rat; conditions: rat, H9c2 cardiomyocytes, read-out: Cytotoxicity IC50
Source text: as §1, §2, §3, §4

Candida albicans KMM 455 [6] = experiment: Biofilm formation assay (MTT); type: cell-based
Procedure: (§5) The Gram-positive bacterial Staphylococcus aureus ATCC 21027, Gram-negative bacterial Escherichia coli VKPM (B-7935), and yeast-like fungal Candida albicans KMM 455 strains were fermented on solid medium Mueller Hinton broth with agar (16.0 g/L) in a Petri dish at 37 °C for 24 h. The antimicrobial activity of the compound was tested at concentrations ranging from 100 µM and lower. The effect of the compound on bacterial growth was estimated as described by. Gentamicin and amphotericin B were used as positive controls against S. aureus, E. coli, and C. albicans, and a 1% dimethyl sulfoxide (DMSO) solution in PBS was used as a negative control. The optical density of the bacterial suspension after 18 h was measured at λ = 620 nm. The effect of the compound on biofilm formation for 18 h was tested using MTT reagent (Sigma-Aldrich, St. Louis, MO, USA) in accordance with. The optical density of the obtained solution was measured at λ = 570 nm. A Multiskan FS spectrophotometer (Thermo Scientific Inc., Beverly, MA, USA) was used for both assays. The results were calculated as percentages of the control data and presented as minimal concentrations reduced by 50% of growth or biofilm formation (MIC50).

[7] = test system: Escherichia coli VKPM (B-7935); experiment: Biofilm formation assay (MTT); type: cell-based; conditions: for Biofilm formation, MIC50: E. coli, 18 h
Procedure: as §5

[8] = test system: Staphylococcus aureus ATCC 21027; experiment: Biofilm formation assay (MTT); type: cell-based; conditions: for Biofilm formation, MIC50: S. aureus, 18 h
Procedure: as §5

Candida albicans KMM 455 [9] = experiment: Antimicrobial assay, growth inhibition (optical density); type: cell-based
Procedure: as §5

[10] = test system: Escherichia coli VKPM (B-7935); experiment: as above; type: cell-based; conditions: for MIC50: Escherichia coli, 18 h, E. coli
Procedure: as §5

[11] = test system: Staphylococcus aureus ATCC 21027; experiment: as above; type: cell-based; conditions: Staphylococcus aureus; for MIC50: ATCC21027, 18 h, S. aureus, 18 h
Procedure: as §5

## COc1c(OC)c(-c2c[nH]c3ccccc23)c(OC)c(OC)c1-c1c[nH]c2ccccc12 [Compound 7, asterriquinol D dimethyl ether]
[1]; 24 h, 1.0 µM
  cell viability: 102.7 ± 5.1 % of control
[1]; 24 h, 10.0 µM
  cell viability: 100.2 ± 3.8 % of control
[1]; 24 h, 100.0 µM
  cell viability: 59.6 ±2.1 % of control
[1]; 48 h, 1.0 µM
  cell viability: 97.7 ± 1.4 % of control
[1]; 48 h, 10.0 µM
  cell viability: 93.1 ± 3.6 % of control
[1]; 48 h, 100.0 µM
  cell viability: 78.9 ± 5.7 % of control
[2]; HaCaT keratinocytes, 24 h
  IC50 at 24 h: > 100 µM
[2]; HaCaT keratinocytes, 48 h
  IC50 at 48 h: 80.5 ± 1.8 µM
[2]; MCF-7 breast cancer cells, MCF-7, 24 h
  IC50 at 24 h: > 100 µM
[2]; MCF-7 breast cancer cells, MCF-7, 48 h
  IC50 at 48 h: 79.1 ± 2.4 µM
[2]; MCF-10A breast epithelial cells, MCF10A, 24 h
  IC50 at 24 h: > 100 µM
[2]; MCF-10A breast epithelial cells, MCF10A, 48 h
  IC50 at 48 h: > 100 µM
[2]; MDA-MB-231 breast cancer cells, MDA-MB-231, 24 h
  IC50 at 24 h: > 100 µM
[2]; MDA-MB-231 breast cancer cells, MDA-MB-231, 48 h
  IC50 at 48 h: 85.1 ± 1.5 µM
HaCaT keratinocytes; 24 h, 1.0 µM
  cell viability: 100.7 ± 3.8 % of control
HaCaT keratinocytes; 24 h, 10.0 µM
  cell viability: 85.6 ± 7.6 % of control
HaCaT keratinocytes; 24 h, 100.0 µM
  cell viability: 64.1 ± 3.2 % of control
HaCaT keratinocytes; 48 h, 1.0 µM
  cell viability: 94.2 ± 8.7 % of control
HaCaT keratinocytes; 48 h, 10.0 µM
  cell viability: 78.1 ± 6.4 % of control
HaCaT keratinocytes; 48 h, 100.0 µM
  cell viability: 40.1 ± 2.9 % of control
[3]; MCF-7, 24 h, 1.0 µM
  cell viability: 99.4 ± 4.4 % of control
[3]; MCF-7, 24 h, 10.0 µM
  cell viability: 65.4 ± 2.9 % of control
[3]; MCF-7, 24 h, 100.0 µM
  cell viability: 56.0 ± 4.5 % of control
[3]; MCF-7, 48 h, 1.0 µM
  cell viability: 91.5 ± 6.3 % of control
[3]; MCF-7, 48 h, 10.0 µM
  cell viability: 70.0 ± 5.2 % of control
[3]; MCF-7, 48 h, 100.0 µM
  cell viability: 43.9 ± 3.5 % of control
[4]; MDA-MB-231, 24 h, 1.0 µM
  cell viability: 102.7 ± 1.6 % of control
[4]; MDA-MB-231, 24 h, 10.0 µM
  cell viability: 75.9 ± 4.8 % of control
[4]; MDA-MB-231, 24 h, 100.0 µM
  cell viability: 53.6 ± 4.2 % of control
[4]; MDA-MB-231, 48 h, 1.0 µM
  cell viability: 99.8 ± 3.7 % of control
[4]; MDA-MB-231, 48 h, 10.0 µM
  cell viability: 82.9 ± 6.3 % of control
[4]; MDA-MB-231, 48 h, 100.0 µM
  cell viability: 43.5 ± 2.5 % of control
H9c2 cardiomyocytes; H9c2, 24 h, 1.0 µM
  cell viability: 101.5 ± 1.3 % of control
H9c2 cardiomyocytes; H9c2, 24 h, 10.0 µM
  cell viability: 76.9 ± 2.8 % of control
H9c2 cardiomyocytes; H9c2, 24 h, 100.0 µM
  cell viability: 59.0 ± 5.3 % of control
H9c2 cardiomyocytes; H9c2, 48 h, 1.0 µM
  cell viability: 102.8 ± 7.6 % of control
H9c2 cardiomyocytes; H9c2, 48 h, 10.0 µM
  cell viability: 76.3 ± 3.9 % of control
H9c2 cardiomyocytes; H9c2, 48 h, 100.0 µM
  cell viability: 32.8 ± 1.4 % of control
[5]; H9c2, 24 h
  IC50 at 24 h: > 100 µM
[5]; H9c2, 48 h
  IC50 at 48 h: 69.9 ± 2.3 µM
Candida albicans KMM 455 [6]; C. albicans, 18 h
  Biofilm formation, MIC50: >100 µM
Candida albicans KMM 455 [6]; at 100 µM
  effect on C. albicans biofilm formation: did not affect
[7]
  Biofilm formation, MIC50: >100 µM
[7]; at / up to 100 µM
  effect on E. coli biofilm formation: did not affect
[8]
  Biofilm formation, MIC50: >100 µM
[8]; at / up to 100 µM
  effect on S. aureus biofilm formation: did not affect
Candida albicans KMM 455 [9]; Candida albicans, KMM455, 18 h, C. albicans, 18 h
  MIC50: > 100 µM
Candida albicans KMM 455 [9]; at / up to 100 µM
  effect on C. albicans growth: did not affect
[10]
  MIC50: > 100 µM
[10]; at / up to 100 µM
  effect on E. coli growth: did not affect
[11]
  MIC50: > 100 µM
[11]; ATCC21027, at 100 µM, read-out: inhibition of S. aureus growth
  inhibition at 100 µM: 42.2 ± 2.07%

## CNC(C)C1CCC(N)C(OC2C(N)CC(N)C(OC3OCC(C)(O)C(NC)C3O)C2O)O1 (centres unmarked) [Gentamycin, reference compound]
[7]
  Biofilm formation, MIC50: 5.34 ± 0.50 µM
[8]
  Biofilm formation, MIC50: 4.34 ± 0.32 µM
[10]
  MIC50: 5.03 ± 0.77 µM (≈ 2.4 µg/mL)
[11]
  MIC50: 4.52 ± 0.98 µM (≈ 2.16 µg/mL)

— publication PMC12471299, “Secondary Metabolites of the Marine Sponge-Derived Fungus Aspergillus subramanianii 1901NT-1.40.2 and Their Antimicrobial and Anticancer Activities” (Marine Drugs, 2025)
